Test results reported in US20250290915A1, “METHOD FOR PREDICTING RESPONSIVENESS TO THERAPY” (CANCERTAIN LIMITED, priority 2022, published 2025).

Key:
[1] = system: Cancer Cells from tissue sample (CSCs, tumour marker+ cells) of a patient with GI cancer (Cholangio Carcinoma, stage 4); assay: Drug response score assay on tissue sample, Example 9; format: cell-based, human; settings: for effectiveness on Cancer Cells from tissue sample under laboratory conditions: GI cancer (Cholangio Carcinoma) tissue sample; for Drug sensitivity as calculated by the assay, Tissue: interpretation based on Drug Response Scores; for Drug sensitivity as calculated by the assay, Tissue / Drug response score, conc. 1 / Drug response score, conc. 2 / Drug response score, conc. 3 / Drug response score, conc. 4: tissue sample; for Drug response score, conc. 1: conc. 1 per Table 27B: Pem 20, Niv 20, Atez 100, Pacli 0.05, Irino 5, Beva 1 μg/ml, Len 50, 5-FU 250 ng/ml; for Drug response score, conc. 2: conc. 2 per Table 27B: Pem 40, Niv 40, Atez 200, Pacli 0.1, Irino 10, Beva 2 μg/ml, Len 100, 5-FU 500 ng/ml; for Drug response score, conc. 3: conc. 3 per Table 27B: Pem 100, Niv 80, Atez 400, Pacli 0.2, Irino 25, Beva 4 μg/ml, Len 200, 5-FU 1000 ng/ml; for Drug response score, conc. 4: conc. 4 per Table 27B: Pem 160, Niv 160, Atez 800, Pacli 1, Irino 50, Beva 8 μg/ml, Len 400, 5-FU 2000 ng/ml
Protocol: Where a tissue sample was provided by each subject, cancer stem cells (CSCs, CD133^+), were isolated from said sample. Tumour marker cells were further isolated from each tissue sample. The remaining cells were designated tumour marker^+ cells.
First, disaggregation of the tissue samples was carried out. Disaggregation was dependent on the size of the tissue sample and the method of retrieval: • EBUS (Endobronchial Ultrasound Scan and Biopsy)—very small fragments of tissue in solution-spun at 1200 rpm for 5 minutes to collect tissue pellet • Bronchoscopy-larger fragments with larger amount of blood vessels • Broncho-lavage-similar to EBUS, spun at 1200 rpm for 5 minutes to collet tissue pellet
Once a pellet of tissue obtained, DMEM added to the tissue pellet and the material forced through a […] Smart strainer. Once a cell suspension was achieved, this was spun at 1200 rpm for 5 minutes and the supernatant removed. The cells were then resuspended to a volume of 60 μl.
20 μl of FcR block and 20 μl of CD133 microbeads were added to the resuspended cells, followed by incubation for 15 minutes at 4° C. The cells were then processed using an AutoMACS machine. This separates the […] into CD133^+ and CD133^− cells in 2 separate falcons. The falcon tubes are then centrifuged at 1200 rpm for 5 minutes.
The supernatant was removed from the CD133+falcon tube, and the cells resuspended in DMEM with 2 μl Cell Tox, 2 μl MT and 2 μl MT. 20 μl of the resuspended […] was then plated in each well which will contain an immunotherapy treatment.
The supernatant was removed from the CD133^− falcon tube, and the CD133^− cells contacted with 40 μl of a tumour separation microbeads cocktail containing microbeads bound to anti-CD31, anti-CD45, anti-Glycophorin-A (Gly-A) and an anti-fibroblast antibody.
This cocktail is used to separate out tumour marker cells using MACS, by separating out CD31^+, CD45^+ and Gly-A^+ cells. In addition, anti-fibroblast antibody-labelled beads are also used. The cocktail is added to the CD133^− falcon tube, followed by incubation for 15 minutes at 4° C. MACS is carried out using an AutoMACS machine. This cells which are not bound by the CD31, CD45, Gly-A and anti-fibroblast antibody beads are the tumour marker^+ cells.
The different cell types were each divided equally into populations, depending on the number of drugs/concentrations to be tested and plated on a cell-culture plate pre-coated with a scaffold of polycaprolactone (PCL) electrospun fibres and incubated at 37° C., 5% CO2, for 5 to (typically 10) minutes to facilitate cell attachment. After attachment, an initial imaging step was carried out using the RealTime-Glo™ MT assay from Promega (Catalogue No. G9711)) and the CellTox™ Green Cytotoxicity Assay (Promega, Catalogue No. G8741), carried out according to manufacturer's instructions. Following this initial imagining, the immunotherapeutic and/or chemotherapeutic agents were added to the cell populations as indicated below. After 10 minutes, the imagining step was repeated. The cell populations were then incubated at 37° C., 5% CO2 for 48 hours. The imaging step was then repeated. The cell populations were then re-dosed with the same immunotherapeutic and/or chemotherapeutic agents as indicated below, and incubated at 37° C., 5% CO2 for a further 48 hours. After this second 48 hour incubation, the imagining step was repeated for a final time.
At the end of this culture period, dose response scores were calculated using a normalized drug response metric as described in Gupta et al. (Communications Biology volume 3, Article number: 42 (2020), https://doi.org/10.1038/s42003-020-0765-z). The start readout for a given immunotherapeutic or chemotherapeutic agent at a given concentration was the to readout for said immunotherapeutic or chemotherapeutic agent at a specified concentration. […]

[2] = system: Circulating Tumour Cells (CTCs) from a patient with head and neck cancer (squamous cell carcinoma); assay: Drug response score assay on CTCs from blood, Example 6; format: cell-based, human; settings: for Drug response score, conc. 1: conc. 1: Ifos 0.125 μg/ml, Gemcit 2 μg/ml, Doxo 10 ng/ml, Etop 1 μg/ml, Metho 0.5 μg/ml, Capecit 200 μg/ml, Vinor 20 μg/ml; for Drug response score, conc. 1 / Drug response score, conc. 2 / Drug response score, conc. 3 / Drug response score, conc. 4: CTCs, t96h; for Drug response score, conc. 2: conc. 2: Ifos 0.25 μg/ml, Gemcit 10 μg/ml, Doxo 30 ng/ml, Etop 4 μg/ml, Metho 1 μg/ml, Capecit 300 μg/ml, Vinor 40 μg/ml; for Drug response score, conc. 3: conc. 3: Ifos 5 μg/ml, Gemcit 20 μg/ml, Doxo 90 ng/ml, Etop 20 μg/ml, Metho 2 μg/ml, Capecit 400 μg/ml, Vinor 80 μg/ml; for Drug response score, conc. 4: conc. 4: Ifos 10 μg/ml, Gemcit 40 μg/ml, Doxo 270 ng/ml, Etop 100 μg/ml, Metho 4 μg/ml, Capecit 600 μg/ml, Vinor 200 μg/ml; for effectiveness on Circulating Tumour Cells under laboratory conditions / Drug sensitivity as calculated by the assay (interpretation of Drug Response Scores): head and neck cancer CTCs; for Drug sensitivity as calculated by the assay (interpretation of Drug Response Scores): Table 20
Method in brief: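 EpCAM+ CTCs isolated after CD45 depletion were plated on PCL electrospun fibre scaffolds and read by RealTime-Glo MT and CellTox Green imaging before and 10 min after drug addition, at 48 h, then re-dosed and read at 96 h. Normalized drug response scores derived per Gupta et al. from start and t96h readouts against blank-well controls.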

Pembrolizumab
effectiveness on Cancer Cells from tissue sample under laboratory conditions [1]: S+
Drug sensitivity as calculated by the assay, Tissue [1]: S+
Drug response score, conc. 1 [1]: 0.9764
Drug response score, conc. 2 [1]: 0.9717
Drug response score, conc. 3 [1]: 0.9672
Drug response score, conc. 4 [1]: 0.8354

COc1cc([C@@H]2c3cc4c(cc3[C@@H](O[C@@H]3O[C@@H]5CO[C@@H](C)O[C@H]5[C@H](O)[C@H]3O)[C@H]3COC(=O)[C@H]23)OCO4)cc(OC)c1O [Etoposide]
Drug response score, conc. 1 [2]: 0.9372
Drug response score, conc. 2 [2]: 0.6295
Drug response score, conc. 3 [2]: 0.9862
Drug response score, conc. 4 [2]: 0.5135
effectiveness on Circulating Tumour Cells under laboratory conditions [2]: Sensitive S+
Drug sensitivity as calculated by the assay (interpretation of Drug Response Scores) [2]: Sensitive (S+)

Nivolumab
effectiveness on Cancer Cells from tissue sample under laboratory conditions [1]: S+
Drug sensitivity as calculated by the assay, Tissue [1]: S+
Drug response score, conc. 1 [1]: 0.9424
Drug response score, conc. 2 [1]: 0.9636
Drug response score, conc. 3 [1]: 0.9018
Drug response score, conc. 4 [1]: 0.6833

COc1cc2nccc(Oc3ccc(NC(=O)NC4CC4)c(Cl)c3)c2cc1C(N)=O [Lenvatinib]
effectiveness on Cancer Cells from tissue sample under laboratory conditions [1]: S+
Drug sensitivity as calculated by the assay, Tissue [1]: S+
Drug response score, conc. 1 [1]: 0.9082
Drug response score, conc. 2 [1]: 0.9132
Drug response score, conc. 3 [1]: 0.8739
Drug response score, conc. 4 [1]: 0.9434

CC(=O)O[C@H]1C(=O)[C@@]2(C)[C@H]([C@H](OC(=O)c3ccccc3)[C@]3(O)C[C@H](OC(=O)[C@H](O)[C@@H](NC(=O)c4ccccc4)c4ccccc4)C(C)=C1C3(C)C)[C@]1(OC(C)=O)CO[C@@H]1C[C@@H]2O [Paclitaxel]
Drug response score, conc. 1 [1]: 0.9365
Drug response score, conc. 2 [1]: 0.9526
Drug response score, conc. 3 [1]: 0.9072
Drug response score, conc. 4 [1]: 0.9683

O=P1(NCCCl)OCCCN1CCCl (stereo not shown) [Ifosfamide]
Drug response score, conc. 1 [2]: 0.7257
Drug response score, conc. 2 [2]: 0.2439
Drug response score, conc. 3 [2]: 0.9228
Drug response score, conc. 4 [2]: 0.3682
effectiveness on Circulating Tumour Cells under laboratory conditions [2]: Sensitive S+
Drug sensitivity as calculated by the assay (interpretation of Drug Response Scores) [2]: Sensitive (S+)

COc1cccc2c1C(=O)c1c(O)c3c(c(O)c1C2=O)C[C@@](O)(C(=O)CO)C[C@@H]3O[C@H]1C[C@H](N)[C@H](O)[C@H](C)O1 [Doxorubicin]
Drug response score, conc. 1 [2]: 0.7699
Drug response score, conc. 2 [2]: 0.9452
Drug response score, conc. 3 [2]: 0.6229
Drug response score, conc. 4 [2]: 0.7995
effectiveness on Circulating Tumour Cells under laboratory conditions [2]: Sensitive S+
Drug sensitivity as calculated by the assay (interpretation of Drug Response Scores) [2]: Sensitive (S+)
